Measured values as given in PubChem BioAssay (NCI).
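Five compound concentrations were applied to cells in 96-well plates for 48 hours; endpoints were derived by simple linear interpolation of the resulting dose-response curve. The concentration for 50% growth inhibition is given as GI50. The concentration for full growth arrest is given as TGI.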

How the values were obtained:
Test in all cases: NCI-60 cell line screen, 48 h
IGROV1 ovarian = system: IGROV1 ovarian
SW-620 colon = system: SW-620 colon
HL-60(TB) leukemia = system: HL-60(TB) leukemia
RXF 393 renal = system: RXF 393 renal
SNB-19 CNS = system: SNB-19 CNS
UACC-257 melanoma = system: UACC-257 melanoma
SF-539 CNS = system: SF-539 CNS
KM12 colon = system: KM12 colon
SK-MEL-5 melanoma = system: SK-MEL-5 melanoma
NCI-H23 lung = system: NCI-H23 lung
K-562 leukemia = system: K-562 leukemia
UO-31 renal = system: UO-31 renal
COLO 205 colon = system: COLO 205 colon
SK-MEL-28 melanoma = system: SK-MEL-28 melanoma
A498 renal = system: A498 renal
HS 578T breast = system: HS 578T breast
NCI-H522 lung = system: NCI-H522 lung
HOP-92 NSCLC = system: HOP-92 NSCLC
UACC-62 melanoma = system: UACC-62 melanoma
OVCAR-5 ovarian = system: OVCAR-5 ovarian
T-47D breast = system: T-47D breast
PC-3 prostate = system: PC-3 prostate
NCI-H460 lung = system: NCI-H460 lung
SN12C renal = system: SN12C renal
M14 melanoma = system: M14 melanoma
OVCAR-3 ovarian = system: OVCAR-3 ovarian
SF-295 CNS = system: SF-295 CNS
OVCAR-4 ovarian = system: OVCAR-4 ovarian
A549 NSCLC = system: A549 NSCLC
SNB-75 CNS = system: SNB-75 CNS
MALME-3M melanoma = system: MALME-3M melanoma
EKVX NSCLC = system: EKVX NSCLC
MDA-MB-468 breast = system: MDA-MB-468 breast
DU-145 prostate = system: DU-145 prostate
SK-OV-3 ovarian = system: SK-OV-3 ovarian
HT29 colon = system: HT29 colon
MCF7 breast = system: MCF7 breast
NCI-H226 lung = system: NCI-H226 lung
ACHN renal = system: ACHN renal
NCI/ADR-RES ovarian = system: NCI/ADR-RES ovarian
CCRF-CEM leukemia = system: CCRF-CEM leukemia
HCT-116 colon = system: HCT-116 colon
TK-10 renal = system: TK-10 renal
MOLT-4 leukemia = system: MOLT-4 leukemia
MDA-MB-435 = system: MDA-MB-435
SK-MEL-2 melanoma = system: SK-MEL-2 melanoma
RPMI-8226 leukemia = system: RPMI-8226 leukemia
786-0 renal = system: 786-0 renal
OVCAR-8 ovarian = system: OVCAR-8 ovarian
MDA-MB-231 breast = system: MDA-MB-231 breast
HCC-2998 colon = system: HCC-2998 colon
SF-268 CNS = system: SF-268 CNS
HCT-15 colon = system: HCT-15 colon
LOX IMVI melanoma = system: LOX IMVI melanoma
CAKI-1 renal = system: CAKI-1 renal
U251 CNS = system: U251 CNS
BT-549 breast = system: BT-549 breast
HOP-62 NSCLC = system: HOP-62 NSCLC

## N/C(=N\c1nc2ccccc2s1)NC(=O)Nc1ccccc1F
IGROV1 ovarian
  GI50: 1000 nM
  TGI: 25.2 µM
SW-620 colon
  GI50: 412 nM
  TGI: 21.9 µM
HL-60(TB) leukemia
  GI50: 385 nM
  TGI: 13.6 µM
RXF 393 renal
  GI50: 645 nM
  TGI: 5.25 µM
SNB-19 CNS
  GI50: 1730 nM
  TGI: 24 µM
UACC-257 melanoma
  GI50: 14.4 µM
  TGI: 75.4 µM
SF-539 CNS
  GI50: 529 nM
  TGI: 4.72 µM
KM12 colon
  GI50: 475 nM
  TGI: 37.6 µM
SK-MEL-5 melanoma
  GI50: 614 nM
  TGI: 11.1 µM
NCI-H23 lung
  GI50: 2230 nM
  TGI: 25 µM
K-562 leukemia
  GI50: 307 nM
  TGI: > 100 µM
UO-31 renal
  GI50: 1700 nM
  TGI: 21.8 µM
COLO 205 colon
  GI50: 1270 nM
  TGI: 10.1 µM
SK-MEL-28 melanoma
  GI50: 10.2 µM
  TGI: 26.4 µM
A498 renal
  GI50: 17.8 µM
  TGI: 34.1 µM
HS 578T breast
  GI50: 513 nM
  TGI: 19.5 µM
NCI-H522 lung
  GI50: 412 nM
  TGI: 8.84 µM
HOP-92 NSCLC
  GI50: 6.33 µM
  TGI: 24.5 µM
UACC-62 melanoma
  GI50: 387 nM
  TGI: 18.9 µM
OVCAR-5 ovarian
  GI50: 3.28 µM
  TGI: 31.9 µM
T-47D breast
  GI50: 2850 nM
  TGI: > 100 µM
PC-3 prostate
  GI50: 2070 nM
  TGI: 21.2 µM
NCI-H460 lung
  GI50: 406 nM
  TGI: 12.2 µM
SN12C renal
  GI50: 842 nM
  TGI: 25.8 µM
M14 melanoma
  GI50: 400 nM
  TGI: 20.8 µM
OVCAR-3 ovarian
  GI50: 369 nM
  TGI: 4.74 µM
SF-295 CNS
  GI50: 401 nM
  TGI: 15.5 µM
OVCAR-4 ovarian
  GI50: 10.9 µM
  TGI: 39 µM
A549 NSCLC
  GI50: 955 nM
  TGI: 26.6 µM
SNB-75 CNS
  GI50: 201 nM
  TGI: 7.22 µM
MALME-3M melanoma
  GI50: 1210 nM
  TGI: 22.5 µM
EKVX NSCLC
  GI50: 526 nM
  TGI: 67.2 µM
MDA-MB-468 breast
  GI50: 817 nM
  TGI: 3.42 µM
DU-145 prostate
  GI50: 2850 nM
  TGI: 15.6 µM
SK-OV-3 ovarian
  GI50: 6.48 µM
  TGI: 23.8 µM
HT29 colon
  GI50: 369 nM
  TGI: 10.1 µM
MCF7 breast
  GI50: 424 nM
  TGI: 20.5 µM
NCI-H226 lung
  GI50: 3.29 µM
  TGI: 25 µM
ACHN renal
  GI50: 2450 nM
  TGI: 20.9 µM
NCI/ADR-RES ovarian
  GI50: 364 nM
  TGI: 3.11 µM
CCRF-CEM leukemia
  GI50: 694 nM
  TGI: > 100 µM
HCT-116 colon
  GI50: 462 nM
  TGI: 18.5 µM
TK-10 renal
  GI50: 12.1 µM
  TGI: 30 µM
MOLT-4 leukemia
  GI50: 570 nM
  TGI: 69.8 µM
MDA-MB-435
  GI50: 231 nM
  TGI: 680 nM
SK-MEL-2 melanoma
  GI50: 321 nM
  TGI: 10.3 µM
RPMI-8226 leukemia
  GI50: 1260 nM
  TGI: 17.3 µM
786-0 renal
  GI50: 6.41 µM
  TGI: 22 µM
OVCAR-8 ovarian
  GI50: 1250 nM
  TGI: 16.6 µM
MDA-MB-231 breast
  GI50: 724 nM
  TGI: 21.2 µM
HCC-2998 colon
  GI50: 1680 nM
  TGI: 23.1 µM
SF-268 CNS
  GI50: 3.54 µM
  TGI: > 100 µM
HCT-15 colon
  GI50: 434 nM
  TGI: > 100 µM
LOX IMVI melanoma
  GI50: 620 nM
  TGI: 19.8 µM
CAKI-1 renal
  GI50: 525 nM
  TGI: 15.9 µM
U251 CNS
  GI50: 468 nM
  TGI: 14.4 µM
BT-549 breast
  GI50: 477 nM
  TGI: 26 µM
HOP-62 NSCLC
  GI50: 829 nM
  TGI: 15.6 µM
